# Laboratory results from US20240307362A1 (priority 2019, published 2024).
# “And” between values parts separate entries of the source, which are not always exact repeats. Equal values may be shown once. Read-outs that look alike come from different tables or passages of the source.
# Assays:
# [1] = biological target: mutEGFR (D770_N771insSVD) (Homo sapiens (Human), UniProt P00533, INS770SVD); experiment: biochemical; conditions: mutEGFR (D770_N771 insSVD) at 2 mM ATP IC50, 2 mM ATP
# human Bub1 = human Bub1 (Homo sapiens (Human), UniProt O43683); experiment: Bub1 high ATP kinase assay (TR-FRET); format: biochemical
# human Bub1, sequence (O43683 704-1085): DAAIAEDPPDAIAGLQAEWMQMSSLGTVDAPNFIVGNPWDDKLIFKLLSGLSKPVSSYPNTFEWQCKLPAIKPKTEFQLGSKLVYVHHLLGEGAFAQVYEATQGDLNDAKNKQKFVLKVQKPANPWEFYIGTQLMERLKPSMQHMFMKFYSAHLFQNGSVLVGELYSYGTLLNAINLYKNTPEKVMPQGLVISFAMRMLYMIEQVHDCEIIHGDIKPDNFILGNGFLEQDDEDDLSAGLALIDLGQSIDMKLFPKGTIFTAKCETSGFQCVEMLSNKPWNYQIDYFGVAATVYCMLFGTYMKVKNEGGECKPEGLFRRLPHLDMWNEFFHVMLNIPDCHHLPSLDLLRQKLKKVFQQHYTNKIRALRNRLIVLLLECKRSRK
# Description: Bub1-inhibitory activity of compounds of the present invention at a high ATP concentration was quantified employing the Bub1 TR-FRET high ATP kinase assay as described in the following paragraphs.
# N-terminally His6-tagged recombinant catalytic domain of human Bub1 (amino acids 704-1085), expressed in insect cells (Hi5) and purified by Ni-NTA affinity chromatography and subsequent size exclusion chromatography, was used as enzyme.
# Ba/F3-EGFR-insSVD = experiment: Ba/F3 cell survival assay, EGFR-insSVD; format: cell-based
# Procedure, shortened: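 Ba/F3 cells stably expressing WT EGFR or EGFR-insSVD via retrovirus, grown without IL-3 on 10 ng/mL EGF, plated at 4000 cells/well. Compound exposure 48 h at 37 °C; viability read by CellTiter-Glo luminescence.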
# Ba/F3-EGFR-WT = experiment: Ba/F3 cell survival assay, WT EGFR; format: cell-based
# [2] = read-out: Bub1 high ATP (2 mM) IC50, 2 mM ATP
# [3] = Mus musculus, BaF3, 48 h, read-out: BA/F3 (insSVD) IC50, cell viability, Cell Titer-Glo, 48 h, with 10 ng/mL EGF, without IL-3
# [4] = Mus musculus, BaF3, 48 h, read-out: BA/F3 (wild type) IC50, cell viability, Cell Titer-Glo, 48 h, with 10 ng/mL EGF, without IL-3
# [5] = Bub1 high ATP (2 mM) IC50, 2 mM ATP
# [6] = read-out: BA/F3 (insSVD) IC50, cell viability, Cell Titer-Glo, 48 h, with 10 ng/mL EGF, without IL-3
# [7] = read-out: BA/F3 (wild type) IC50, cell viability, Cell Titer-Glo, 48 h, with 10 ng/mL EGF, without IL-3
# mutEGFR (D770_N771insSVD), sequence (P00533 other isoform, or with tags, fused parts or gaps ins SVD behind 770): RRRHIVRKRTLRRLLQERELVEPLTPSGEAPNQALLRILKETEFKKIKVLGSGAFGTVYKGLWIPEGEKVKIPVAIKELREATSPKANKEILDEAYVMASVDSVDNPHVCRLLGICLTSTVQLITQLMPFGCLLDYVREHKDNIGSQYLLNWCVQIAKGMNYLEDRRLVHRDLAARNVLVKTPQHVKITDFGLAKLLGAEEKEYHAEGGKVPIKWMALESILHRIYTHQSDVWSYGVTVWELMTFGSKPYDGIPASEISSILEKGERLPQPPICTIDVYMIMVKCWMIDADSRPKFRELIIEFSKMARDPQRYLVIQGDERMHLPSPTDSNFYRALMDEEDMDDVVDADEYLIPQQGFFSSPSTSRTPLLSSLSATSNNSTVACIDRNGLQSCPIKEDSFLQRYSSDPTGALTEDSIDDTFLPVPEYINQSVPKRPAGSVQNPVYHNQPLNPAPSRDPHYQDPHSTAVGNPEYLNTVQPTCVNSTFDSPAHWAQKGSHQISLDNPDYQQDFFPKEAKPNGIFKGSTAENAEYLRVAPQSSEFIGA
Compound,IC50 [1] [nM],IC50 (human Bub1; [2]) [nM],IC50 (Ba/F3-EGFR-insSVD; [3]) [nM],IC50 (Ba/F3-EGFR-WT; [4]) [nM],IC50 (human Bub1; [5]),IC50 (Ba/F3-EGFR-insSVD; [6]) [nM],IC50 (Ba/F3-EGFR-WT; [7]) [nM]
"COc1c(Cl)cc(F)cc1Nc1c(-c2ccncc2OCC2(C)CCO2)[nH]c2c1C(=O)NCC2 (racemic) [Example 68, 3-(3-chloro-5-fluoro-2-methoxyanilino)-2-(3-{[2-methyloxetan-2-yl]methoxy}pyridin-4-yl)-1,5,6,7-tetrahydro-4H-pyrrolo[3,2-c]pyridin-4-one]",0.215,> 20000,103,1260,,,
"Cc1c(Cl)cccc1Nc1c(-c2ccncc2OCC2(C)CCO2)[nH]c2c1C(=O)NCC2 (racemic) [Example 80, 3-(3-chloro-2-methylanilino)-2-(3-{[2-methyloxetan-2-yl]methoxy}pyridin-4-yl)-1,5,6,7-tetrahydro-4H-pyrrolo[3,2-c]pyridin-4-one]",0.187,6640,35.2,546,,,
"Cc1c(F)cccc1Nc1c(-c2ccncc2OCC2(C)CCO2)[nH]c2c1C(=O)NCC2 (racemic) [Example 83, 3-(3-fluoro-2-methylanilino)-2-(3-{[2-methyloxetan-2-yl]methoxy}pyridin-4-yl)-1,5,6,7-tetrahydro-4H-pyrrolo[3,2-c]pyridin-4-one]",0.246,> 20000,41.9,986,,,
"COc1c(Cl)cc(F)cc1Nc1c(-c2ccncc2OCC2(C)CCO2)[nH]c2c1C(=O)NCC2 (single isomer, unassigned) [Example 69, 3-(3-chloro-5-fluoro-2-methoxyanilino)-2-(3-{[2-methyloxetan-2-yl]methoxy}pyridin-4-yl)-1,5,6,7-tetrahydro-4H-pyrrolo[3,2-c]pyridin-4-one]",0.317,,,,13500 nM,241,1430
"COc1c(Cl)cc(F)cc1Nc1c(-c2ccncc2OCC2(C)CCO2)[nH]c2c1C(=O)NCC2 (single isomer, unassigned) [Example 70, 3-(3-chloro-5-fluoro-2-methoxyanilino)-2-(3-{[2-methyloxetan-2-yl]methoxy}pyridin-4-yl)-1,5,6,7-tetrahydro-4H-pyrrolo[3,2-c]pyridin-4-one]",0.161,,,,18800 nM and > 20000 nM,32.7,537
"Cc1c(Cl)cccc1Nc1c(-c2ccncc2OC[C@]2(C)CCO2)[nH]c2c1C(=O)NCC2 (single isomer, unassigned) [Example 82, (+)-3-(3-chloro-2-methylanilino)-2-(3-{[2-methyloxetan-2-yl]methoxy}pyridin-4-yl)-1,5,6,7-tetrahydro-4H-pyrrolo[3,2-c]pyridin-4-one]",0.134,5980,34.8,673,,,
"Cc1cccc(Nc2c(-c3ccncc3OCC3(C)CCO3)[nH]c3c2C(=O)NCC3)c1Cl (single isomer, unassigned; (+)) [Example 56, (+)-3-(2-chloro-3-methylanilino)-2-{3-[(2-methyloxetan-2-yl)methoxy]pyridin-4-yl}-1,5,6,7-tetrahydro-4H-pyrrolo[3,2-c]pyridin-4-one]",0.15,16100,,,,35.1,489
"Cc1c(F)cccc1Nc1c(-c2ccncc2OCC2(C)CCO2)[nH]c2c1C(=O)NCC2 (single isomer, unassigned; (+)) [Example 85, (+)-3-(3-fluoro-2-methylanilino)-2-(3-{[2-methyloxetan-2-yl]methoxy}pyridin-4-yl)-1,5,6,7-tetrahydro-4H-pyrrolo[3,2-c]pyridin-4-one]",0.107,15800,,,,43.7,1260
"Cc1cccc(Nc2c(-c3ccncc3OCC3(C)CCO3)[nH]c3c2C(=O)NCC3)c1Cl (single isomer, unassigned; (-)) [Example 57, (−)-3-(2-chloro-3-methylanilino)-2-{3-[(2-methyloxetan-2-yl)methoxy]pyridin-4-yl}-1,5,6,7-tetrahydro-4H-pyrrolo[3,2-c]pyridin-4-one]",0.264,13000,,,,402,3250
"Cc1c(Cl)cccc1Nc1c(-c2ccncc2OCC2(C)CCO2)[nH]c2c1C(=O)NCC2 (single isomer, unassigned; (-)) [Example 81, (−)-3-(3-chloro-2-methylanilino)-2-(3-{[2-methyloxetan-2-yl]methoxy}pyridin-4-yl)-1,5,6,7-tetrahydro-4H-pyrrolo[3,2-c]pyridin-4-one]",0.129,5050,96.4,664,,,
"Cc1c(F)cccc1Nc1c(-c2ccncc2OCC2(C)CCO2)[nH]c2c1C(=O)NCC2 (single isomer, unassigned; (-)) [Example 84, (−)-3-(3-fluoro-2-methylanilino)-2-(3-{[2-methyloxetan-2-yl]methoxy}pyridin-4-yl)-1,5,6,7-tetrahydro-4H-pyrrolo[3,2-c]pyridin-4-one]",0.156,14900,,1290,,306,
"O=C1NCCc2[nH]c(-c3ccncc3OCC3COC3)c(Nc3cccc(F)c3Cl)c21 [Example 16, 3-(2-chloro-3-fluoroanilino)-2-{3-[(oxetan-3-yl)methoxy]pyridin-4-yl}-1,5,6,7-tetrahydro-4H-pyrrolo[3,2-c]pyridin-4-one]",0.0988,13900,193,1140,,,
"CCC1(COc2cnccc2-c2[nH]c3c(c2Nc2cccc(Cl)c2C)C(=O)NCC3)COC1 [Example 23, 3-(3-chloro-2-methylanilino)-2-{3-[(3-ethyloxetan-3-yl)methoxy]pyridin-4-yl}-1,5,6,7-tetrahydro-4H-pyrrolo[3,2-c]pyridin-4-one]",0.96,> 5710,190,3380,,,
"CCc1c(Cl)cccc1Nc1c(-c2ccncc2OCC2(C)CCO2)[nH]c2c1C(=O)NCC2 (stereo not shown) [Example 78, 3-(3-chloro-2-ethylanilino)-2-(3-{[2-methyloxetan-2-yl]methoxy}pyridin-4-yl)-1,5,6,7-tetrahydro-4H-pyrrolo[3,2-c]pyridin-4-one]",0.267,2800,30.4,698,,,
"CCC1(COc2cnccc2-c2[nH]c3c(c2Nc2cccc(C)c2Cl)C(=O)NCC3)COC1 [Example 86, 3-(2-chloro-3-methylanilino)-2-{3-[(3-ethyloxetan-3-yl)methoxy]pyridin-4-yl}-1,5,6,7-tetrahydro-4H-pyrrolo[3,2-c]pyridin-4-one]",0.187,> 5700,255,899,,,
"CCC1(COc2cnccc2-c2[nH]c3c(c2Nc2cccc(F)c2OC)C(=O)NCC3)COC1 [Example 88, 2-{3-[(3-ethyloxetan-3-yl)methoxy]pyridin-4-yl}-3-(3-fluoro-2-methoxyanilino)-1,5,6,7-tetrahydro-4H-pyrrolo[3,2-c]pyridin-4-one]",0.0873,7490,66.8,1130,,,
